# From US6949383B2 (priority 1998, dated 2005)
# Key:
# Super-Amp-resistant dnaQ = assay type: cell-based, Escherichia coli
# [1] = system: Super-Stre.-resisting dnaQ; test: Minimum growth inhibiting concentration (MIC) of antibiotic substances; assay type: cell-based, Escherichia coli
# dnaQ+ strain (wild type) = assay type: cell-based, Escherichia coli
# dnaQ = assay type: cell-based, Escherichia coli
# Wild-Type = assay type: cell-based, Escherichia coli
# dnaQ49 strain [2] = test: Drug resistance reached by repeated mutagenesis and selection (Example 2); assay type: cell-based, Escherichia coli
# wild type (dnaQ+ strain) = test: Ampicillin concentration-survival (colony forming) after mutagenesis runs, with or without MNNG; assay type: cell-based, Escherichia coli; settings: for Maximum concentration for ampicillin resistance: wild type and MNNG wild type
# [3] = system: ampicillin-resistant Escherichia coli; settings: resistance due to plasmid; cited from earlier work
# dnaQ49 strain [4] = test: Ampicillin concentration-survival (colony forming) after mutagenesis runs; assay type: cell-based, Escherichia coli; settings: for AC: Ampicillin Concentration (maximum concentration for ampicillin resistance): dnaQ49 strain
# [5] = system: Super-Nali.-resisting dnaQ; test: Minimum growth inhibiting concentration (MIC) of antibiotic substances; assay type: cell-based, Escherichia coli
# [6] = mutagenesis treatment for 1 time
# [7] = mutagenesis treatments for 2 times
# [8] = mutagenesis treatments for 3 times
# [9] = mutagenesis treatments for 4 times
# [10] = mutagenesis treatments for 5 times
# [11] = mutagenesis treatments for 6 times
# [12] = mutagenesis treatments for 7 times
# [13] = mutagenesis treatments for 8 times
# [14] = mutagenesis treatments for 9 times
# [15] = mutagenesis treatments for 10 times
# [16] = mutagenesis treatments for 11 times
# [17] = mutagenesis treatments for 12 times
# [18] = mutagenesis treatments for 13 times
# [19] = mutagenesis treatments for 14 times
# [20] = mutagenesis treatments for 15 times
# [21] = mutagenesis treatments for 16 times
# [22] = mutagenesis treatments for 17 times
# [23] = mutagenesis treatments for 18 times
# [24] = mutagenesis treatments for 19 times
# [25] = mutagenesis treatments for 20 times
# [26] = mutagenesis treatments for 21 times
# [27] = mutagenesis treatments for 22 times
# [28] = mutagenesis treatments for 23 times
compound,measurement,setting,value
[H]/N=C(/N)N[C@H]1[C@H](O)[C@@H](O)[C@H](O[C@@H]2O[C@@H](C)[C@](O)(C=O)[C@H]2O[C@@H]2O[C@@H](CO)[C@H](O)[C@@H](O)[C@@H]2NC)[C@@H](N/C(N)=N\[H])[C@@H]1O [Streptomycin],Minimum growth inhibiting concentration (MIC),Super-Amp-resistant dnaQ,0.5
same,Minimum growth inhibiting concentration (MIC),[1],2048
same,Growth of dnaQ+ strain (wild type) in the presence of drug,dnaQ+ strain (wild type),*3) dnaQ+ strain (wild type) did not grow in the presence of 10 μg/ml of streptomycin.
same,Minimum growth inhibiting concentration (MIC),dnaQ,1
same,Minimum growth inhibiting concentration (MIC),Wild-Type,1
same,Concentration of Streptomycin,dnaQ49 strain [2]; [6],1 µg/mL
same,Concentration of Streptomycin,dnaQ49 strain [2]; [7],10 µg/mL
same,Concentration of Streptomycin,dnaQ49 strain [2]; [8],100 µg/mL
same,Concentration of Streptomycin,dnaQ49 strain [2]; [9],1000 µg/mL
same,Concentration of Streptomycin,dnaQ49 strain [2]; [10],3000 µg/mL
same,Concentration of Streptomycin,dnaQ49 strain [2]; [11],4000 µg/mL
same,Concentration of Streptomycin,dnaQ49 strain [2]; [12],6000 µg/mL
same,Concentration of Streptomycin,dnaQ49 strain [2]; [13],8000 µg/mL
same,Concentration of Streptomycin,dnaQ49 strain [2]; [14],9000 µg/mL
same,Concentration of Streptomycin,dnaQ49 strain [2]; [15],10000 µg/mL
same,Concentration of Streptomycin,dnaQ49 strain [2]; [16],12000 µg/mL
same,Concentration of Streptomycin,dnaQ49 strain [2]; [17],14000 µg/mL
same,Concentration of Streptomycin,dnaQ49 strain [2]; [18],16000 µg/mL
same,Concentration of Streptomycin,dnaQ49 strain [2]; [19],17000 µg/mL
same,Concentration of Streptomycin,dnaQ49 strain [2]; [20],18000 µg/mL
same,Concentration of Streptomycin,dnaQ49 strain [2]; [21],19000 µg/mL
same,Concentration of Streptomycin,dnaQ49 strain [2]; [22],20000 µg/mL
same,Concentration of Streptomycin,dnaQ49 strain [2]; [23],21000 µg/mL
same,Concentration of Streptomycin,dnaQ49 strain [2]; [24],22000 µg/mL
same,Concentration of Streptomycin,dnaQ49 strain [2]; [25],23000 µg/mL
same,Concentration of Streptomycin,dnaQ49 strain [2]; [26],24000 µg/mL
same,Concentration of Streptomycin,dnaQ49 strain [2]; [27],25000 µg/mL
same,Concentration of Streptomycin,dnaQ49 strain [2]; [28],26000 µg/mL
same,Concentration of Streptomycin,"dnaQ49 strain [2]; mutagenesis treatments for 23 times, listed as streptomycin","26,000 μg/ml"
CC1(C)S[C@@H]2[C@H](NC(=O)[C@H](N)c3ccccc3)C(=O)N2[C@H]1C(=O)O [Ampicillin],Minimum growth inhibiting concentration (MIC),Super-Amp-resistant dnaQ,2048
same,Ampicillin resistance of resistant microorganism obtained,"wild type (dnaQ+ strain); MNNG-treated group, low-concentration treatment",300 µg/mL
same,AC: Ampicillin Concentration (maximum concentration for ampicillin resistance),"wild type (dnaQ+ strain); Wild type (MNNG Concn 0), 1st Run",3 µg/mL
same,AC: Ampicillin Concentration (maximum concentration for ampicillin resistance),"wild type (dnaQ+ strain); Wild type (MNNG Concn 0), 2nd Run",10 µg/mL
same,AC: Ampicillin Concentration (maximum concentration for ampicillin resistance),"wild type (dnaQ+ strain); Wild type (MNNG Concn 0), 3rd Run",10 µg/mL
same,AC: Ampicillin Concentration (maximum concentration for ampicillin resistance),"wild type (dnaQ+ strain); Wild type (MNNG Concn 0), 4th Run",10 µg/mL
same,AC: Ampicillin Concentration (maximum concentration for ampicillin resistance),"wild type (dnaQ+ strain); Wild type (MNNG Concn 0), 5th Run",60 µg/mL
same,AC: Ampicillin Concentration (maximum concentration for ampicillin resistance),"wild type (dnaQ+ strain); Wild type (MNNG Concn 1), 1st Run",3 µg/mL
same,AC: Ampicillin Concentration (maximum concentration for ampicillin resistance),"wild type (dnaQ+ strain); Wild type (MNNG Concn 1), 2nd Run",10 µg/mL
same,AC: Ampicillin Concentration (maximum concentration for ampicillin resistance),"wild type (dnaQ+ strain); Wild type (MNNG Concn 1), 3rd Run",10 µg/mL
same,AC: Ampicillin Concentration (maximum concentration for ampicillin resistance),"wild type (dnaQ+ strain); Wild type (MNNG Concn 1), 4th Run",10 µg/mL
same,AC: Ampicillin Concentration (maximum concentration for ampicillin resistance),"wild type (dnaQ+ strain); Wild type (MNNG Concn 1), 5th Run",60 µg/mL
same,AC: Ampicillin Concentration (maximum concentration for ampicillin resistance),"wild type (dnaQ+ strain); Wild type (MNNG Concn 3), 1st Run",3 µg/mL
same,AC: Ampicillin Concentration (maximum concentration for ampicillin resistance),"wild type (dnaQ+ strain); Wild type (MNNG Concn 3), 2nd Run",30 µg/mL
same,AC: Ampicillin Concentration (maximum concentration for ampicillin resistance),"wild type (dnaQ+ strain); Wild type (MNNG Concn 3), 3rd Run",100 µg/mL
same,AC: Ampicillin Concentration (maximum concentration for ampicillin resistance),"wild type (dnaQ+ strain); Wild type (MNNG Concn 3), 4th Run",300 µg/mL
same,AC: Ampicillin Concentration (maximum concentration for ampicillin resistance),"wild type (dnaQ+ strain); Wild type (MNNG Concn 6), 1st Run",3 µg/mL
same,AC: Ampicillin Concentration (maximum concentration for ampicillin resistance),"wild type (dnaQ+ strain); Wild type (MNNG Concn 6), 2nd Run",6 µg/mL
same,AC: Ampicillin Concentration (maximum concentration for ampicillin resistance),"wild type (dnaQ+ strain); Wild type (MNNG Concn 6), 3rd Run",10 µg/mL
same,AC: Ampicillin Concentration (maximum concentration for ampicillin resistance),"wild type (dnaQ+ strain); Wild type (MNNG Concn 6), 4th Run",10 µg/mL
same,AC: Ampicillin Concentration (maximum concentration for ampicillin resistance),"wild type (dnaQ+ strain); Wild type (MNNG Concn 6), 5th Run",30 µg/mL
same,AC: Ampicillin Concentration (maximum concentration for ampicillin resistance),"wild type (dnaQ+ strain); Wild type (MNNG Concn 10), 1st Run",6 µg/mL
same,AC: Ampicillin Concentration (maximum concentration for ampicillin resistance),"wild type (dnaQ+ strain); Wild type (MNNG Concn 30), 1st Run",3 µg/mL
same,Maximum concentration for ampicillin resistance,wild type (dnaQ+ strain); after first mutagenesis,3˜6 μg/ml
same,Maximum concentration for ampicillin resistance,wild type (dnaQ+ strain); after second mutagenesis,6˜30 μg/ml
same,Resistance concentration of ampicillin-resistant Escherichia coli reported up to now,[3],"1,500 μg/ml"
same,Ampicillin resistance of strain obtained,"dnaQ49 strain [4]; another dnaQ49 strain, five mutagenesis treatments (FIG. 7)","about 10,000 g/ml"
same,Ampicillin resistance from concentration-survival curve,"dnaQ49 strain [4]; dnaQ49 strain before introduction of mutation, compared with wild type, 24° C., two days",slightly stronger ampicillin resistance than the wild type
same,AC: Ampicillin Concentration (maximum concentration for ampicillin resistance),dnaQ49 strain [4]; 1st Run of mutagenesis,30 µg/mL
same,AC: Ampicillin Concentration (maximum concentration for ampicillin resistance),dnaQ49 strain [4]; 2nd Run of mutagenesis,300 µg/mL
same,AC: Ampicillin Concentration (maximum concentration for ampicillin resistance),dnaQ49 strain [4]; 3rd Run of mutagenesis,1000 µg/mL
same,AC: Ampicillin Concentration (maximum concentration for ampicillin resistance),dnaQ49 strain [4]; 4th Run of mutagenesis,3000 µg/mL
same,AC: Ampicillin Concentration (maximum concentration for ampicillin resistance),dnaQ49 strain [4]; 5th Run of mutagenesis,6000 µg/mL
same,AC: Ampicillin Concentration (maximum concentration for ampicillin resistance),"dnaQ49 strain [4]; 5th Run of mutagenesis, listed as ampicillin","about 6,000 μg/ml"
same,Minimum growth inhibiting concentration (MIC),dnaQ,2
same,Minimum growth inhibiting concentration (MIC),Wild-Type,1
CO/N=C(\C(=O)N[C@@H]1C(=O)N2C(C(=O)O)=C(COC(C)=O)CS[C@H]12)c1csc(N)n1 [Cefotaxime],Minimum growth inhibiting concentration (MIC),Super-Amp-resistant dnaQ,64
same,Resistance of ampicillin-resistant dnaQ49 strain to other antibiotic substances (MIC investigation),Super-Amp-resistant dnaQ,strong resistance
same,Minimum growth inhibiting concentration (MIC),dnaQ,0.0313
same,Minimum growth inhibiting concentration (MIC),Wild-Type,0.0156
O=C(N[C@H](CO)[C@H](O)c1ccc([N+](=O)[O-])cc1)C(Cl)Cl [Chloramphenicol],Minimum growth inhibiting concentration (MIC),Super-Amp-resistant dnaQ,0.5
same,Minimum growth inhibiting concentration (MIC),dnaQ,1
same,Minimum growth inhibiting concentration (MIC),Wild-Type,0.5
CO[C@H]1/C=C/O[C@@]2(C)Oc3c(C)c(O)c4c(O)c(c(/C=N/N5CCN(C)CC5)c(O)c4c3C2=O)NC(=O)/C(C)=C\C=C\[C@H](C)[C@H](O)[C@@H](C)[C@@H](O)[C@@H](C)[C@H](OC(C)=O)[C@@H]1C [Rifampicin],Minimum growth inhibiting concentration (MIC),Super-Amp-resistant dnaQ,2
same,Minimum growth inhibiting concentration (MIC),dnaQ,8
same,Minimum growth inhibiting concentration (MIC),Wild-Type,4
CCn1cc(C(=O)O)c(=O)c2ccc(C)nc21 [Nalidixic acid],Minimum growth inhibiting concentration (MIC),Super-Amp-resistant dnaQ,0.5
same,Minimum growth inhibiting concentration (MIC),[5],2048
same,Growth of dnaQ+ strain (wild type) in the presence of drug,dnaQ+ strain (wild type),*3) dnaQ+ strain (wild type) did not grow in the presence of 10 μg/ml of nalidixic acid.
same,Minimum growth inhibiting concentration (MIC),dnaQ,1
same,Minimum growth inhibiting concentration (MIC),Wild-Type,2
same,Concentration of Nalidixic Acid,dnaQ49 strain [2]; [6],1 µg/mL
same,Concentration of Nalidixic Acid,dnaQ49 strain [2]; [7],10 µg/mL
same,Concentration of Nalidixic Acid,dnaQ49 strain [2]; [8],100 µg/mL
same,Concentration of Nalidixic Acid,dnaQ49 strain [2]; [9],200 µg/mL
same,Concentration of Nalidixic Acid,dnaQ49 strain [2]; [10],400 µg/mL
same,Concentration of Nalidixic Acid,dnaQ49 strain [2]; [11],600 µg/mL
same,Concentration of Nalidixic Acid,dnaQ49 strain [2]; [12],1000 µg/mL
same,Concentration of Nalidixic Acid,dnaQ49 strain [2]; [13],1100 µg/mL
same,Concentration of Nalidixic Acid,dnaQ49 strain [2]; [14],1200 µg/mL
same,Concentration of Nalidixic Acid,dnaQ49 strain [2]; [15],1300 µg/mL
same,Concentration of Nalidixic Acid,dnaQ49 strain [2]; [16],1400 µg/mL
same,Concentration of Nalidixic Acid,dnaQ49 strain [2]; [17],1600 µg/mL
same,Concentration of Nalidixic Acid,dnaQ49 strain [2]; [18],1800 µg/mL
same,Concentration of Nalidixic Acid,dnaQ49 strain [2]; [19],2000 µg/mL
same,Concentration of Nalidixic Acid,dnaQ49 strain [2]; [20],2500 µg/mL
same,Concentration of Nalidixic Acid,dnaQ49 strain [2]; [21],3000 µg/mL
same,Concentration of Nalidixic Acid,dnaQ49 strain [2]; [22],4000 µg/mL
same,Concentration of Nalidixic Acid,dnaQ49 strain [2]; [23],5000 µg/mL
same,Concentration of Nalidixic Acid,dnaQ49 strain [2]; [24],6000 µg/mL
same,Concentration of Nalidixic Acid,dnaQ49 strain [2]; [25],6200 µg/mL
same,Concentration of Nalidixic Acid,dnaQ49 strain [2]; [26],6400 µg/mL
same,Concentration of Nalidixic Acid,dnaQ49 strain [2]; [27],6600 µg/mL
same,Concentration of Nalidixic Acid,dnaQ49 strain [2]; [28],6800 µg/mL
same,Concentration of Nalidixic Acid,"dnaQ49 strain [2]; mutagenesis treatments for 24 times, listed as Nalidixic Acid",7000 µg/mL
same,Concentration of Nalidixic Acid,"dnaQ49 strain [2]; mutagenesis treatments for 24 times, listed as nalidixic acid","7,000 μg/ml"
